Source: the kinase profiling compilation of Christmann-Franck et al. (2016)

What was measured:
Assay in all cases: radiometric filter-binding kinase assay, Kinase HotSpot
Details in all cases: compound 0.5 µM; ATP 10 µM
ACVR1B (human) = ACVR1B (human) (UniProt P36896)
AKT3 (human) = AKT3 (human) (UniProt Q9Y243)
AURKC (human) = AURKC (human) (UniProt Q9UQB9)
AXL (human) = AXL (human) (UniProt P30530)
BTK (human) = BTK (human) (UniProt Q06187)
CAMK1D (human) = CAMK1D (human) (UniProt Q8IU85)
CAMK2A (human) = CAMK2A (human) (UniProt Q9UQM7)
CAMK2D (human) = CAMK2D (human) (UniProt Q13557)
CDK3 CCNE1 (human) = CDK3 CCNE1 (human) (UniProt Q00526+P24864)
CDK7 CCNH MNAT1 (human) = CDK7 CCNH MNAT1 (human) (UniProt P50613+P51948+P51946)
CSNK1D (human) = CSNK1D (human) (UniProt P48730)
DAPK1 (human) = DAPK1 (human) (UniProt P53355)
DAPK2 (human) = DAPK2 (human) (UniProt Q9UIK4)
DYRK3 (human) = DYRK3 (human) (UniProt O43781)
EPHA4 (human) = EPHA4 (human) (UniProt P54764)
FES (human) = FES (human) (UniProt P07332)
INSRR (human) = INSRR (human) (UniProt P14616)
LIMK1 (human) = LIMK1 (human) (UniProt P53667)
MAP3K2 (human) = MAP3K2 (human) (UniProt Q9Y2U5)
MAP3K5 (human) = MAP3K5 (human) (UniProt Q99683)
MAP3K7 TAB1 (human) = MAP3K7 TAB1 (human) (UniProt O43318+Q15750)
MAP3K9 (human) = MAP3K9 (human) (UniProt P80192)
MAP4K4 (human) = MAP4K4 (human) (UniProt O95819)
MAPK12 (human) = MAPK12 (human) (UniProt P53778)
NEK3 (human) = NEK3 (human) (UniProt P51956)
PASK (human) = PASK (human) (UniProt Q96RG2)
PDGFRB (human) = PDGFRB (human) (UniProt P09619)
PHKG1 (human) = PHKG1 (human) (UniProt Q16816)
PRKCD (human) = PRKCD (human) (UniProt Q05655)
PRKD2 (human) = PRKD2 (human) (UniProt Q9BZL6)
PRKG2 (human) = PRKG2 (human) (UniProt Q13237)
PTK2 (human) = PTK2 (human) (UniProt Q05397)
RIPK2 (human) = RIPK2 (human) (UniProt O43353)
RPS6KA2 KD1 KD2 (human) = RPS6KA2 KD1 KD2 (human) (UniProt Q15349)
RPS6KB1 (human) = RPS6KB1 (human) (UniProt P23443)
SRPK2 (human) = SRPK2 (human) (UniProt P78362)
STK16 (human) = STK16 (human) (UniProt O75716)
STK24 (human) = STK24 (human) (UniProt Q9Y6E0)
SYK (human) = SYK (human) (UniProt P43405)
TAOK1 (human) = TAOK1 (human) (UniProt Q7L7X3)
TGFBR2 (human) = TGFBR2 (human) (UniProt P37173)
VRK1 (human) = VRK1 (human) (UniProt Q99986)

Chain of MAP4K4 (human) (O95819 whole entry, looked up): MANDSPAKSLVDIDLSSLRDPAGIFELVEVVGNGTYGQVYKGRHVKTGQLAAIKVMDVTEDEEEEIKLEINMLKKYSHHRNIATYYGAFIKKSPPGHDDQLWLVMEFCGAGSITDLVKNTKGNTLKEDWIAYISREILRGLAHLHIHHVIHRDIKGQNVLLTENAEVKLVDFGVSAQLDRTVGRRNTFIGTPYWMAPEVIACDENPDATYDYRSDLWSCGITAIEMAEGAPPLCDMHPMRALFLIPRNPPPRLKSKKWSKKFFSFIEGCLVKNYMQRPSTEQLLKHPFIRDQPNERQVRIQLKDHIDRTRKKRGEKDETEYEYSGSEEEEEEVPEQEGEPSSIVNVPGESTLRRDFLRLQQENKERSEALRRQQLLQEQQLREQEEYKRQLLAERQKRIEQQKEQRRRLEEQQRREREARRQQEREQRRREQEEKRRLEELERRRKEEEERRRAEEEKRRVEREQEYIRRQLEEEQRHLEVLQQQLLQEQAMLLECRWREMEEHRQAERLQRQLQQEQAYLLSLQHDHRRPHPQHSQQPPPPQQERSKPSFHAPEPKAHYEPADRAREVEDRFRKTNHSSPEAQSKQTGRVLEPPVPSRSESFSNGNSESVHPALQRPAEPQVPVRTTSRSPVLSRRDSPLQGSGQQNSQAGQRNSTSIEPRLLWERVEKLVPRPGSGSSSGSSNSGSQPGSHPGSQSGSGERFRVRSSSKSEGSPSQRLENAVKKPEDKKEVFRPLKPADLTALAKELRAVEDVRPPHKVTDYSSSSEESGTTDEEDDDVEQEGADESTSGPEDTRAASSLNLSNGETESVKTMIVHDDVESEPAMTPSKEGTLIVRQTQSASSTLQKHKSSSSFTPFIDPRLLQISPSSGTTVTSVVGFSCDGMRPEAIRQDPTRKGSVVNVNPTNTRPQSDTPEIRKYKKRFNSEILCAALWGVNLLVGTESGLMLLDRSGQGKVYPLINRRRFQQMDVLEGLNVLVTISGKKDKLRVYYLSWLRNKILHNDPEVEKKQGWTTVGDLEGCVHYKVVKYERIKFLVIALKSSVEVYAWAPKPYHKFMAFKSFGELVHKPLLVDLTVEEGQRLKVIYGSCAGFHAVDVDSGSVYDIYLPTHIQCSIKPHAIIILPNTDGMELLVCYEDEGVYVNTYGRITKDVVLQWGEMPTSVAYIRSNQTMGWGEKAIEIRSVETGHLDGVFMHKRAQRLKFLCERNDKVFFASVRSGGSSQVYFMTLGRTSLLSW
Chain of CAMK1D (human) (Q8IU85 whole entry, looked up): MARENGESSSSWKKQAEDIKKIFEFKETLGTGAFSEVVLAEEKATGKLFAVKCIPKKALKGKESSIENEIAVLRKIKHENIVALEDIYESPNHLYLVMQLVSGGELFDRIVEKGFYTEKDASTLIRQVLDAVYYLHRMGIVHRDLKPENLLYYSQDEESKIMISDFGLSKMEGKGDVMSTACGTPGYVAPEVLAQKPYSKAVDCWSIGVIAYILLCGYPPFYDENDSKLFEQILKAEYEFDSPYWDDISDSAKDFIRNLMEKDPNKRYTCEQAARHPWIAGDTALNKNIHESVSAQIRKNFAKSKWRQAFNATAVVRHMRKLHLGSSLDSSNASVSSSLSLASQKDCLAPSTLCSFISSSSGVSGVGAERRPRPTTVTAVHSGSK
Chain of STK16 (human) (O75716 whole entry, looked up): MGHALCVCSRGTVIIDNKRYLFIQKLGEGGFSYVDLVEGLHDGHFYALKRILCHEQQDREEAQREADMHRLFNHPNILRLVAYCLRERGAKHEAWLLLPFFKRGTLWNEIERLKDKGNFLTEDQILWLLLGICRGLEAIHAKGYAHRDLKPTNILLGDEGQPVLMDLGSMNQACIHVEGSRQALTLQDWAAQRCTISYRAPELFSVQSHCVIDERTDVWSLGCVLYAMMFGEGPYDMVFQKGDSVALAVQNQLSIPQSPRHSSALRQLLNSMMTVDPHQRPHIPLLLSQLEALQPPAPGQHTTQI
Chain of STK24 (human) (Q9Y6E0 whole entry, looked up): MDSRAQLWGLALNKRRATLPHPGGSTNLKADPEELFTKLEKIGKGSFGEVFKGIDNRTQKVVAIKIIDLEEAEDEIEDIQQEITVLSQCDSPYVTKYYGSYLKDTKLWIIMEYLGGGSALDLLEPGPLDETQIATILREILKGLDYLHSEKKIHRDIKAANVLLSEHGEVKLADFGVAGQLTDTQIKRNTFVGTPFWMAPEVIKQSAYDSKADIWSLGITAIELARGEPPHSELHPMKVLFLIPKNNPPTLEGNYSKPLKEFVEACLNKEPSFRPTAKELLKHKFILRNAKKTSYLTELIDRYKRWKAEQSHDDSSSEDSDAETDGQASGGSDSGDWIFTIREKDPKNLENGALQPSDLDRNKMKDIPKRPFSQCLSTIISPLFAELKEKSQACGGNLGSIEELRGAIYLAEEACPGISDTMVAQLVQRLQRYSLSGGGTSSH
Chain of MAP3K9 (human) (P80192 whole entry, looked up): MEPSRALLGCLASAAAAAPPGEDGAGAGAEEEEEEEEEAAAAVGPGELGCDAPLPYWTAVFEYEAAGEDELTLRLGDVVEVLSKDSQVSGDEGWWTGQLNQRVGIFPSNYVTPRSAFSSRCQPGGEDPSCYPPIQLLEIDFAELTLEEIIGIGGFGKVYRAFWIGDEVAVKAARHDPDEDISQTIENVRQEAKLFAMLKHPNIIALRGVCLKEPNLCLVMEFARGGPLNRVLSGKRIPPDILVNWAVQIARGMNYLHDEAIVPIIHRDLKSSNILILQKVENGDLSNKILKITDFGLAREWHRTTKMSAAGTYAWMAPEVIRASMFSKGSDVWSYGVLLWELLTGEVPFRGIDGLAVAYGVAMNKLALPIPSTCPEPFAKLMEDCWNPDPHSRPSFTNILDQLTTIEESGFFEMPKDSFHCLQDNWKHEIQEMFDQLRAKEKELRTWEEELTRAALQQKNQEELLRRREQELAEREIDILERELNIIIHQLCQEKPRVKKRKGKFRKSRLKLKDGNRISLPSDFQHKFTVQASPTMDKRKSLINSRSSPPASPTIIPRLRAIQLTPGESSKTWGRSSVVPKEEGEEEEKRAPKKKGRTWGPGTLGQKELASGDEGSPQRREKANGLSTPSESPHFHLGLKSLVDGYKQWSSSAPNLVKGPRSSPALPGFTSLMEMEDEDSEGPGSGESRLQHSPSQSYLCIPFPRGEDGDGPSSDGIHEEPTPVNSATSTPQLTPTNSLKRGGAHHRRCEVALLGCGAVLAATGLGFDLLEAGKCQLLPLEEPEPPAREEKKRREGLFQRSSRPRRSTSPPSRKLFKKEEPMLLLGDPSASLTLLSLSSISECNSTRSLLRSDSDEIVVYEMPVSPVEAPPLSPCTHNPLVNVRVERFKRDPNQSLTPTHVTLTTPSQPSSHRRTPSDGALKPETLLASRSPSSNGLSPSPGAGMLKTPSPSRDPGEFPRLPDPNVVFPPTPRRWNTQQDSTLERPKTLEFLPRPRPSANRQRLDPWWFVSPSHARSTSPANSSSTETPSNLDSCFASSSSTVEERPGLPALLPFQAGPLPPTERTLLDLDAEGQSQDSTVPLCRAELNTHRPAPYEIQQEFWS
Chain of PDGFRB (human) (P09619 whole entry, looked up): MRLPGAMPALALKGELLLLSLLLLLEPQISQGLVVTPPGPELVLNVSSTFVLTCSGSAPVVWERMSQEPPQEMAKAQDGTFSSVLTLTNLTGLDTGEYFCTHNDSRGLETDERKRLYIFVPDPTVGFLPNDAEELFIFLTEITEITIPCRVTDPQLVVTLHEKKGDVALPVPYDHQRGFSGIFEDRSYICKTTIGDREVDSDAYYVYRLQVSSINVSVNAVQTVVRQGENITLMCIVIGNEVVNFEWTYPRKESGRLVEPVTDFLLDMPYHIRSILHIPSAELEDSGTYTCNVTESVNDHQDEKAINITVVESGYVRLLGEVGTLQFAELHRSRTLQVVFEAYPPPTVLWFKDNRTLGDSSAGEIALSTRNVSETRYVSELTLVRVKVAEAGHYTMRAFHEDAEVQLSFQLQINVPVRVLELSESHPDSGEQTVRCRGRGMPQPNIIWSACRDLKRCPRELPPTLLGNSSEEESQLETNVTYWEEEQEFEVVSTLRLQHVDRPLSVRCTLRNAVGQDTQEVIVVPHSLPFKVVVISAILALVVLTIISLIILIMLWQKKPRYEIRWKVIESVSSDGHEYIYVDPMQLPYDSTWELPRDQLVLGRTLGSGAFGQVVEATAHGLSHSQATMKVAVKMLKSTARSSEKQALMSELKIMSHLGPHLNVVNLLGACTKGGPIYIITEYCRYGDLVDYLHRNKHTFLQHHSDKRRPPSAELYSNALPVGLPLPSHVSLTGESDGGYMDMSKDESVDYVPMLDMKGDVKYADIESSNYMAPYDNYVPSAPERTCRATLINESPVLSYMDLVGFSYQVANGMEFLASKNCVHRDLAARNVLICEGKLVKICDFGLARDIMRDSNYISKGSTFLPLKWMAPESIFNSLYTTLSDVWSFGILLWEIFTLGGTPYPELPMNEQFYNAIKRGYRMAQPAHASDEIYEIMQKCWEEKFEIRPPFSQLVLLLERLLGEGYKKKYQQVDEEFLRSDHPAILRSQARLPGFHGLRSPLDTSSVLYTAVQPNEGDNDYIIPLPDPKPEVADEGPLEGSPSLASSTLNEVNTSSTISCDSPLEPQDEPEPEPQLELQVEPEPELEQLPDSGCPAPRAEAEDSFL
Chain of CAMK2A (human) (Q9UQM7 whole entry, looked up): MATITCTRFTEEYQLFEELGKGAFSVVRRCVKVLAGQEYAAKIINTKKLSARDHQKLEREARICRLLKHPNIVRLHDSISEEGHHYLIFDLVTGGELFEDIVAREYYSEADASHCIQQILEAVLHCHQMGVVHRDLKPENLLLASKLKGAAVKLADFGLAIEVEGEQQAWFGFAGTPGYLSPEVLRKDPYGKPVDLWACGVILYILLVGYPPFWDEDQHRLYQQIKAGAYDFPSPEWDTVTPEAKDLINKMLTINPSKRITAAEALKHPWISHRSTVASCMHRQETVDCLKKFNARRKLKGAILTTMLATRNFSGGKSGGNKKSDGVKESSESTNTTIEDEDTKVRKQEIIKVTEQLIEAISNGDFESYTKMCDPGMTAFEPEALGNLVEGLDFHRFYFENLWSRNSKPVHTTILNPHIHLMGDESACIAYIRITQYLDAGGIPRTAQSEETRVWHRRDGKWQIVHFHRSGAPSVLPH

What does the source list for `CC(=O)O/N=C1\C(=C2\C(=O)Nc3cc(Br)ccc32)Nc2ccccc21`?
residual activity (ACVR1B (human)): 98.2%; residual activity (AKT3 (human)): 95.1%; residual activity (AURKC (human)): 86%; residual activity (AXL (human)): 88%; residual activity (BTK (human)): 27.3%; residual activity (CAMK1D (human)): 79.1%; residual activity (CAMK2A (human)): 89.2%; residual activity (CAMK2D (human)): 53.8%; residual activity (CDK3 CCNE1 (human)): 36.3%; residual activity (CDK7 CCNH MNAT1 (human)): 91.1%; residual activity (CSNK1D (human)): 92.3%; residual activity (DAPK1 (human)): 86.8%; residual activity (DAPK2 (human)): 68.7%; residual activity (DYRK3 (human)): 91.3%; residual activity (EPHA4 (human)): 87.6%; residual activity (FES (human)): 115%; residual activity (INSRR (human)): 96.7%; residual activity (LIMK1 (human)): 69.7%; residual activity (MAP3K2 (human)): 93.1%; residual activity (MAP3K5 (human)): 95.8%; residual activity (MAP3K7 TAB1 (human)): 97.4%; residual activity (MAP3K9 (human)): 51.5%; residual activity (MAP4K4 (human)): 30.2%; residual activity (MAPK12 (human)): 85.2%; residual activity (NEK3 (human)): 130%; residual activity (PASK (human)): 86.2%; residual activity (PDGFRB (human)): 51.6%; residual activity (PHKG1 (human)): 67.7%; residual activity (PRKCD (human)): 97%; residual activity (PRKD2 (human)): 87.8%; residual activity (PRKG2 (human)): 91.4%; residual activity (PTK2 (human)): 95.9%; residual activity (RIPK2 (human)): 108%; residual activity (RPS6KA2 KD1 KD2 (human)): 51%; residual activity (RPS6KB1 (human)): 95.4%; residual activity (SRPK2 (human)): 96.6%; residual activity (STK16 (human)): 76.5%; residual activity (STK24 (human)): 70.9%; residual activity (SYK (human)): 88.3%; residual activity (TAOK1 (human)): 126%; residual activity (TGFBR2 (human)): 132%; residual activity (VRK1 (human)): 80.7%

`Cn1nc2c3c(cccc31)C(=O)c1ccccc1-2` was tested. Which residual activity (ACVR1B (human)) did it give?
The residual activity was 102%.

What about the residual activity (AKT3 (human)) of the same compound?
The residual activity was 102%.

What about the residual activity (AURKC (human)) of the same compound?
The residual activity was 89.3%.

What about the residual activity (AXL (human)) of the same compound?
Its residual activity is 104%.

What about the residual activity (BTK (human)) of the same compound?
Its residual activity is 89.5%.

What about the residual activity (CAMK1D (human)) of the same compound?
The residual activity was 70.3%.

And the residual activity (CAMK2A (human))?
Its residual activity is 106%.

And the residual activity (CAMK2D (human))?
The residual activity was 90%.

What about the residual activity (CDK3 CCNE1 (human)) of the same compound?
The residual activity was 87.5%.

And the residual activity (CDK7 CCNH MNAT1 (human))?
The residual activity was 98.8%.

And the residual activity (CSNK1D (human))?
The residual activity was 20.8%.

And the residual activity (DAPK1 (human))?
The residual activity was 86.4%.

What about the residual activity (DAPK2 (human)) of the same compound?
The residual activity was 104%.

What about the residual activity (DYRK3 (human)) of the same compound?
Its residual activity is 129%.

And the residual activity (EPHA4 (human))?
The residual activity was 104%.

What about the residual activity (FES (human)) of the same compound?
Its residual activity is 94.4%.

What about the residual activity (INSRR (human)) of the same compound?
Its residual activity is 82.7%.

What about the residual activity (LIMK1 (human)) of the same compound?
The residual activity was 97.1%.

What about the residual activity (MAP3K2 (human)) of the same compound?
The residual activity was 103%.

And the residual activity (MAP3K5 (human))?
Its residual activity is 93.1%.

What about the residual activity (MAP3K7 TAB1 (human)) of the same compound?
Its residual activity is 83.9%.

What about the residual activity (MAP3K9 (human)) of the same compound?
The residual activity was 99.4%.

And the residual activity (MAP4K4 (human))?
Its residual activity is 85.1%.

And the residual activity (MAPK12 (human))?
Its residual activity is 93.8%.

And the residual activity (NEK3 (human))?
The residual activity was 96.7%.

What about the residual activity (PASK (human)) of the same compound?
Its residual activity is 94.6%.

And the residual activity (PDGFRB (human))?
The residual activity was 100%.

What about the residual activity (PHKG1 (human)) of the same compound?
The residual activity was 86.4%.

And the residual activity (PRKCD (human))?
The residual activity was 92.3%.

What about the residual activity (PRKD2 (human)) of the same compound?
The residual activity was 77%.

And the residual activity (PRKG2 (human))?
Its residual activity is 105%.

What about the residual activity (PTK2 (human)) of the same compound?
Its residual activity is 92.8%.

And the residual activity (RIPK2 (human))?
The residual activity was 75.7%.

And the residual activity (RPS6KA2 KD1 KD2 (human))?
The residual activity was 93.5%.

What about the residual activity (RPS6KB1 (human)) of the same compound?
Its residual activity is 96.3%.

And the residual activity (SRPK2 (human))?
The residual activity was 97.2%.

And the residual activity (STK16 (human))?
Its residual activity is 83.3%.

What about the residual activity (STK24 (human)) of the same compound?
The residual activity was 98.6%.

What about the residual activity (SYK (human)) of the same compound?
The residual activity was 94.8%.

And the residual activity (TAOK1 (human))?
Its residual activity is 100%.

And the residual activity (TGFBR2 (human))?
The residual activity was 94.9%.

And the residual activity (VRK1 (human))?
Its residual activity is 84.1%.

`O=C1NC(=O)C(c2c[nH]c3ccccc23)=C1c1c[nH]c2ccccc12` was tested. Which residual activity (ACVR1B (human)) did it give?
The residual activity was 112%.

And the residual activity (AKT3 (human))?
The residual activity was 90%.

What about the residual activity (AURKC (human)) of the same compound?
Its residual activity is 101%.

What about the residual activity (AXL (human)) of the same compound?
Its residual activity is 103%.

What about the residual activity (BTK (human)) of the same compound?
Its residual activity is 98.2%.

What about the residual activity (CAMK1D (human)) of the same compound?
The residual activity was 106%.

And the residual activity (CAMK2A (human))?
Its residual activity is 85.3%.

What about the residual activity (CAMK2D (human)) of the same compound?
Its residual activity is 65%.

What about the residual activity (CDK3 CCNE1 (human)) of the same compound?
The residual activity was 91.5%.

And the residual activity (CDK7 CCNH MNAT1 (human))?
Its residual activity is 94.4%.

And the residual activity (CSNK1D (human))?
The residual activity was 95.7%.

And the residual activity (DAPK1 (human))?
Its residual activity is 79.4%.

What about the residual activity (DAPK2 (human)) of the same compound?
Its residual activity is 88.6%.

And the residual activity (DYRK3 (human))?
Its residual activity is 101%.

What about the residual activity (EPHA4 (human)) of the same compound?
Its residual activity is 87.6%.

And the residual activity (FES (human))?
Its residual activity is 99.8%.

What about the residual activity (INSRR (human)) of the same compound?
The residual activity was 90.1%.

What about the residual activity (LIMK1 (human)) of the same compound?
The residual activity was 103%.

And the residual activity (MAP3K2 (human))?
Its residual activity is 107%.

And the residual activity (MAP3K5 (human))?
Its residual activity is 106%.

And the residual activity (MAP3K7 TAB1 (human))?
Its residual activity is 97%.

And the residual activity (MAP3K9 (human))?
Its residual activity is 55.4%.

And the residual activity (MAP4K4 (human))?
The residual activity was 58.5%.

What about the residual activity (MAPK12 (human)) of the same compound?
The residual activity was 93%.

And the residual activity (NEK3 (human))?
The residual activity was 88.2%.

And the residual activity (PASK (human))?
The residual activity was 90.8%.

What about the residual activity (PDGFRB (human)) of the same compound?
Its residual activity is 95.6%.

And the residual activity (PHKG1 (human))?
Its residual activity is 74.9%.

What about the residual activity (PRKCD (human)) of the same compound?
The residual activity was 55.5%.

What about the residual activity (PRKD2 (human)) of the same compound?
The residual activity was 87.4%.

What about the residual activity (PRKG2 (human)) of the same compound?
Its residual activity is 52.6%.

What about the residual activity (PTK2 (human)) of the same compound?
The residual activity was 101%.

And the residual activity (RIPK2 (human))?
The residual activity was 97%.

What about the residual activity (RPS6KA2 KD1 KD2 (human)) of the same compound?
Its residual activity is 11.5%.

And the residual activity (RPS6KB1 (human))?
Its residual activity is 75.6%.

What about the residual activity (SRPK2 (human)) of the same compound?
Its residual activity is 84.3%.

What about the residual activity (STK16 (human)) of the same compound?
Its residual activity is 94.2%.

And the residual activity (STK24 (human))?
The residual activity was 61.5%.

What about the residual activity (SYK (human)) of the same compound?
The residual activity was 103%.

And the residual activity (TAOK1 (human))?
Its residual activity is 93.7%.

And the residual activity (TGFBR2 (human))?
The residual activity was 95.5%.

And the residual activity (VRK1 (human))?
The residual activity was 109%.
